# Earlier results, collected in patent publication US5621142A, “Aminoalkylcyclopropane derivatives” (Asahi Kasei Kogyo Kabushiki Kaisha, priority 1994, dated 1997).
# Key:
# [1] = test system: synaptosomal uptake of 5-HT; conditions: Neuropharmacology, Vol. 24, No. 12, 1211-1219, 1985
# [2] = test system: synaptosomal uptake of norepipephrine; conditions: Neuropharmacology, Vol. 24, No. 12, 1211-1219, 1985
smiles,measurement,setting,value
"CCN(CC)C(=O)C1(c2ccccc2)CC1CN.Cl (centres unmarked) [compound (A), 1-phenyl-1-diethylaminocarbonyl-2-aminomethyl-cyclopropane hydrochloride]",activity to inhibit the synaptosomal uptake of 5-HT,[1],has an activity to inhibit the synaptosomal uptake of norepipephrine and 5-HT
same,activity to inhibit the synaptosomal uptake of norepipephrine,[2],has an activity to inhibit the synaptosomal uptake of norepipephrine and 5-HT
